Results from the NIST ThermoML archive (doi:10.1016/j.jct.2007.09.002).
± gives the expanded uncertainty stated by the source.

Conditions: Liquid; Ebulliometric method (Recirculating still)

Normal boiling temperature | SMILES
61.0 ± 0.2 °C | ClC(Cl)Cl [trichloromethane]
80 ± 0.2 °C | c1ccccc1 [benzene]
102.6 ± 0.2 °C | FC(F)(F)c1ccccc1 [(trifluoromethyl)benzene]
78.6 ± 0.2 °C | CCO [ethanol]
